Assay results taken from ChEMBL document CHEMBL3608278 (J Med Chem, 2015).

Tests used:
[1] = target: T1, Potassium voltage-gated channel subfamily A member 3 (Homo sapiens, UniProt P22001); parameters: species or system Blood
[2] = target: T1, Potassium voltage-gated channel subfamily A member 3; assay type: cell-based, CHO-K1
[3] = target: T1, Potassium voltage-gated channel subfamily A member 3; assay: cell-based; parameters: species or system Blood

T1 sequence (P22001 whole entry): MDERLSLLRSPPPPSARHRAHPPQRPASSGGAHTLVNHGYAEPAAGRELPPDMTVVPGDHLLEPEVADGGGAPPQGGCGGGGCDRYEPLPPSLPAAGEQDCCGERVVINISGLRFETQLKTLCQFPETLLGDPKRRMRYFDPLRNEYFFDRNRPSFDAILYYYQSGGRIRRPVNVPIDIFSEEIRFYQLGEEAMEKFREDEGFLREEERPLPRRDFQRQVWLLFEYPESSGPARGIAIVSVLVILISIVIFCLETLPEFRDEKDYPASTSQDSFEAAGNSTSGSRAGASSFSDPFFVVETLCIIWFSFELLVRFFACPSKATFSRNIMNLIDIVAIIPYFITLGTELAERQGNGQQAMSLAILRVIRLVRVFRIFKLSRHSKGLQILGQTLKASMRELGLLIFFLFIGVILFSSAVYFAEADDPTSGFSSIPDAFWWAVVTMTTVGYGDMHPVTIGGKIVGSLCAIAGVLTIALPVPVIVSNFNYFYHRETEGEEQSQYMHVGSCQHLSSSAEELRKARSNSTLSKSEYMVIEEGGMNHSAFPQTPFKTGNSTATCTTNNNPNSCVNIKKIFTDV

| SMILES | IC50 [1] | IC50 [2] | IC50 [3] |
| --- | --- | --- | --- |
| CC[C@H](C)[C@@H]1NC(=O)[C@@H](NC(=O)[C@H](CO)NC(=O)[C@@H](N)CCCNC(=N)N)CSSC[C@@H](C(=O)O)NC(=O)[C@H]([C@@H](C)O)NC(=O)CNC(=O)[C@@H]2CSSC[C@@H]3NC(=O)[C@H](CCC(N)=O)NC(=O)[C@H](Cc4ccccc4)NC(=O)[C@H](C)NC(=O)[C@H]([C@@H](C)O)NC(=O)[C@H](CSSC[C@H](NC(=O)[C@H](Cc4ccccc4)NC(=O)[C@H](CO)NC(=O)[C@H](CC(C)C)NC(=O)[C@H](CCCNC(=N)N)NC(=O)[C@H](Cc4ccc(O)cc4)NC(=O)[C@H](CCCCN)NC(=O)[C@H](CCSC)NC(=O)[C@H](CCC(=O)O)NC(=O)[C@H](Cc4cnc[nH]4)NC(=O)[C@H](CCCCN)NC3=O)C(=O)N[C@@H](CCCNC(=N)N)C(=O)N[C@@H](CCCCN)C(=O)N[C@@H]([C@@H](C)O)C(=O)N2)NC(=O)[C@H](CCCNC(=N)N)NC(=O)[C@H](CO)NC(=O)[C@H](CCCCN)NC(=O)[C@@H]2CCCN2C(=O)[C@H]([C@@H](C)CC)NC(=O)[C@H]([C@@H](C)O)NC(=O)[C@H](CC(=O)O)NC1=O | > 92 nM | > 3.33 nM | > 92 nM |
| CC[C@H](C)[C@@H]1NC(=O)[C@@H](NC(=O)[C@H](CO)NC(=O)[C@@H](N)CCCNC(=N)N)CSSC[C@@H](C(=O)O)NC(=O)[C@H]([C@@H](C)O)NC(=O)CNC(=O)[C@@H]2CSSC[C@@H]3NC(=O)[C@H](CCC(N)=O)NC(=O)[C@H](Cc4ccccc4)NC(=O)[C@H](C)NC(=O)[C@H]([C@@H](C)O)NC(=O)[C@H](CSSC[C@H](NC(=O)[C@H](Cc4ccccc4)NC(=O)[C@H](CO)NC(=O)[C@H](CC(C)C)NC(=O)[C@H](CCCNC(=N)N)NC(=O)[C@H](Cc4ccc(O)cc4)NC(=O)[C@H](CCCCN)NC(=O)[C@H](CCC(=O)O)NC(=O)[C@H](CO)NC(=O)[C@H](Cc4cnc[nH]4)NC(=O)[C@H](CCCCN)NC3=O)C(=O)N[C@@H](CCCNC(=N)N)C(=O)N[C@@H](CCCCN)C(=O)N[C@@H]([C@@H](C)O)C(=O)N2)NC(=O)[C@H](CCCNC(=N)N)NC(=O)[C@H](CO)NC(=O)[C@H](CCCCN)NC(=O)[C@@H]2CCCN2C(=O)[C@H]([C@@H](C)CC)NC(=O)[C@H]([C@@H](C)O)NC(=O)[C@H](CC(=O)O)NC1=O | 28.1 nM | > 3.33 nM | 18.5 nM |
| CC[C@H](C)[C@@H]1NC(=O)[C@@H](NC(=O)[C@H](CO)NC(=O)[C@@H](N)CCCNC(=N)N)CSSC[C@@H](C(=O)O)NC(=O)[C@H]([C@@H](C)O)NC(=O)CNC(=O)[C@@H]2CSSC[C@@H]3NC(=O)[C@H](CCC(N)=O)NC(=O)[C@H](Cc4ccccc4)NC(=O)[C@H](C)NC(=O)[C@H]([C@@H](C)O)NC(=O)[C@H](CSSC[C@H](NC(=O)[C@H](Cc4ccccc4)NC(=O)[C@H](CO)NC(=O)[C@H](CC(C)C)NC(=O)[C@H](CCCNC(=N)N)NC(=O)[C@H](Cc4ccc(O)cc4)NC(=O)[C@H](CCC(=O)O)NC(=O)[C@H](CCSC)NC(=O)[C@H](CO)NC(=O)[C@H](Cc4cnc[nH]4)NC(=O)[C@H](CCCCN)NC3=O)C(=O)N[C@@H](CCCNC(=N)N)C(=O)N[C@@H](CCCCN)C(=O)N[C@@H]([C@@H](C)O)C(=O)N2)NC(=O)[C@H](CCCNC(=N)N)NC(=O)[C@H](CO)NC(=O)[C@H](CCCCN)NC(=O)[C@@H]2CCCN2C(=O)[C@H]([C@@H](C)CC)NC(=O)[C@H]([C@@H](C)O)NC(=O)[C@H](CC(=O)O)NC1=O | > 100 nM | > 3.33 nM | > 100 nM |
| CC[C@H](C)[C@@H]1NC(=O)[C@@H](NC(=O)[C@H](CO)NC(=O)[C@@H](N)CCCNC(=N)N)CSSC[C@@H](C(=O)O)NC(=O)[C@H]([C@@H](C)O)NC(=O)CNC(=O)[C@@H]2CSSC[C@@H]3NC(=O)[C@H](CCC(N)=O)NC(=O)[C@H](Cc4ccccc4)NC(=O)[C@H](C)NC(=O)[C@H]([C@@H](C)O)NC(=O)[C@H](CSSC[C@H](NC(=O)[C@H](Cc4ccccc4)NC(=O)[C@H](CO)NC(=O)[C@H](CC(C)C)NC(=O)[C@H](CCCNC(=N)N)NC(=O)[C@H](Cc4ccc(O)cc4)NC(=O)[C@H](CCCCN)NC(=O)[C@H](CCSC)NC(=O)[C@H](CO)NC(=O)[C@H](Cc4cnc[nH]4)NC(=O)[C@H](CCCCN)NC3=O)C(=O)N[C@@H](CCCNC(=N)N)C(=O)N[C@@H](CCCCN)C(=O)N[C@@H]([C@@H](C)O)C(=O)N2)NC(=O)[C@H](CCCNC(=N)N)NC(=O)[C@H](CO)NC(=O)[C@H](CCCCN)NC(=O)[C@@H]2CCCN2C(=O)[C@H](CCC(=O)O)NC(=O)[C@H]([C@@H](C)O)NC(=O)[C@H](CC(=O)O)NC1=O | 19.5 nM | 1.31 nM | 5 nM |
| CC[C@H](C)[C@@H]1NC(=O)[C@@H](NC(=O)[C@H](CO)NC(=O)[C@@H](N)CCCNC(=N)N)CSSC[C@@H](C(=O)O)NC(=O)[C@H]([C@@H](C)O)NC(=O)CNC(=O)[C@@H]2CSSC[C@@H]3NC(=O)[C@H](CCC(N)=O)NC(=O)[C@H](Cc4ccccc4)NC(=O)[C@H](C)NC(=O)[C@H]([C@@H](C)O)NC(=O)[C@H](CSSC[C@H](NC(=O)[C@H](Cc4ccccc4)NC(=O)[C@H](CO)NC(=O)[C@H](CC(C)C)NC(=O)[C@H](CCCNC(=N)N)NC(=O)[C@H](Cc4ccc(O)cc4)NC(=O)[C@H](CCCCN)NC(=O)[C@H](CCSC)NC(=O)[C@H](CO)NC(=O)[C@H](Cc4cnc[nH]4)NC(=O)[C@H](CCCCN)NC3=O)C(=O)N[C@@H](CCCNC(=N)N)C(=O)N[C@@H](CCCCN)C(=O)N[C@@H]([C@@H](C)O)C(=O)N2)NC(=O)[C@H](CCCNC(=N)N)NC(=O)[C@H](CO)NC(=O)[C@H](CCC(=O)O)NC(=O)[C@@H]2CCCN2C(=O)[C@H]([C@@H](C)CC)NC(=O)[C@H]([C@@H](C)O)NC(=O)[C@H](CC(=O)O)NC1=O | 0.056 nM | 0.146 nM | 0.037 nM |
| CC[C@H](C)[C@@H]1NC(=O)[C@@H](NC(=O)[C@H](CO)NC(=O)[C@@H](N)CCCNC(=N)N)CSSC[C@@H](C(=O)O)NC(=O)[C@H]([C@@H](C)O)NC(=O)CNC(=O)[C@@H]2CSSC[C@@H]3NC(=O)[C@H](CCC(N)=O)NC(=O)[C@H](Cc4ccccc4)NC(=O)[C@H](C)NC(=O)[C@H]([C@@H](C)O)NC(=O)[C@H](CSSC[C@H](NC(=O)[C@H](Cc4ccccc4)NC(=O)[C@H](CO)NC(=O)[C@H](CC(C)C)NC(=O)[C@H](CCCNC(=N)N)NC(=O)[C@H](Cc4ccc(O)cc4)NC(=O)[C@H](CCCCN)NC(=O)[C@H](CCSC)NC(=O)[C@H](CO)NC(=O)[C@H](Cc4cnc[nH]4)NC(=O)[C@H](CCCCN)NC3=O)C(=O)N[C@@H](CCCNC(=N)N)C(=O)N[C@@H](CCCCN)C(=O)N[C@@H]([C@@H](C)O)C(=O)N2)NC(=O)[C@H](CCC(=O)O)NC(=O)[C@H](CO)NC(=O)[C@H](CCCCN)NC(=O)[C@@H]2CCCN2C(=O)[C@H]([C@@H](C)CC)NC(=O)[C@H]([C@@H](C)O)NC(=O)[C@H](CC(=O)O)NC1=O | 4.54 nM | 0.983 nM | 1.32 nM |
| CC[C@H](C)[C@@H]1NC(=O)[C@@H](NC(=O)[C@H](CO)NC(=O)[C@@H](N)CCCNC(=N)N)CSSC[C@@H](C(=O)O)NC(=O)[C@H]([C@@H](C)O)NC(=O)CNC(=O)[C@@H]2CSSC[C@@H]3NC(=O)[C@H](CCC(N)=O)NC(=O)[C@H](Cc4ccccc4)NC(=O)[C@H](C)NC(=O)[C@H](CCC(=O)O)NC(=O)[C@H](CSSC[C@H](NC(=O)[C@H](Cc4ccccc4)NC(=O)[C@H](CO)NC(=O)[C@H](CC(C)C)NC(=O)[C@H](CCCNC(=N)N)NC(=O)[C@H](Cc4ccc(O)cc4)NC(=O)[C@H](CCCCN)NC(=O)[C@H](CCSC)NC(=O)[C@H](CO)NC(=O)[C@H](Cc4cnc[nH]4)NC(=O)[C@H](CCCCN)NC3=O)C(=O)N[C@@H](CCCNC(=N)N)C(=O)N[C@@H](CCCCN)C(=O)N[C@@H]([C@@H](C)O)C(=O)N2)NC(=O)[C@H](CCCNC(=N)N)NC(=O)[C@H](CO)NC(=O)[C@H](CCCCN)NC(=O)[C@@H]2CCCN2C(=O)[C@H]([C@@H](C)CC)NC(=O)[C@H]([C@@H](C)O)NC(=O)[C@H](CC(=O)O)NC1=O | 1.1 nM | 0.152 nM | 0.785 nM |
| CC[C@H](C)[C@@H]1NC(=O)[C@@H](NC(=O)[C@H](CO)NC(=O)[C@@H](N)CCCNC(=N)N)CSSC[C@@H](C(=O)O)NC(=O)[C@H]([C@@H](C)O)NC(=O)CNC(=O)[C@@H]2CSSC[C@@H]3NC(=O)[C@H](CCC(=O)O)NC(=O)[C@H](Cc4ccccc4)NC(=O)[C@H](C)NC(=O)[C@H]([C@@H](C)O)NC(=O)[C@H](CSSC[C@H](NC(=O)[C@H](Cc4ccccc4)NC(=O)[C@H](CO)NC(=O)[C@H](CC(C)C)NC(=O)[C@H](CCCNC(=N)N)NC(=O)[C@H](Cc4ccc(O)cc4)NC(=O)[C@H](CCCCN)NC(=O)[C@H](CCSC)NC(=O)[C@H](CO)NC(=O)[C@H](Cc4cnc[nH]4)NC(=O)[C@H](CCCCN)NC3=O)C(=O)N[C@@H](CCCNC(=N)N)C(=O)N[C@@H](CCCCN)C(=O)N[C@@H]([C@@H](C)O)C(=O)N2)NC(=O)[C@H](CCCNC(=N)N)NC(=O)[C@H](CO)NC(=O)[C@H](CCCCN)NC(=O)[C@@H]2CCCN2C(=O)[C@H]([C@@H](C)CC)NC(=O)[C@H]([C@@H](C)O)NC(=O)[C@H](CC(=O)O)NC1=O | 0.373 nM | 0.197 nM | 0.352 nM |
| CC[C@H](C)[C@@H]1NC(=O)[C@@H](NC(=O)[C@H](CO)NC(=O)[C@@H](N)CCCNC(=N)N)CSSC[C@@H](C(=O)O)NC(=O)[C@H]([C@@H](C)O)NC(=O)CNC(=O)[C@@H]2CSSC[C@@H]3NC(=O)[C@H](CCC(N)=O)NC(=O)[C@H](Cc4ccccc4)NC(=O)[C@H](C)NC(=O)[C@H]([C@@H](C)O)NC(=O)[C@H](CSSC[C@H](NC(=O)[C@H](Cc4ccccc4)NC(=O)[C@H](CO)NC(=O)[C@H](CC(C)C)NC(=O)[C@H](CCCNC(=N)N)NC(=O)[C@H](Cc4ccc(O)cc4)NC(=O)[C@H](CCCCN)NC(=O)[C@H](CCSC)NC(=O)[C@H](CO)NC(=O)[C@H](Cc4cnc[nH]4)NC(=O)[C@H](CCC(=O)O)NC3=O)C(=O)N[C@@H](CCCNC(=N)N)C(=O)N[C@@H](CCCCN)C(=O)N[C@@H]([C@@H](C)O)C(=O)N2)NC(=O)[C@H](CCCNC(=N)N)NC(=O)[C@H](CO)NC(=O)[C@H](CCCCN)NC(=O)[C@@H]2CCCN2C(=O)[C@H]([C@@H](C)CC)NC(=O)[C@H]([C@@H](C)O)NC(=O)[C@H](CC(=O)O)NC1=O | 0.083 nM | 0.12 nM | 0.047 nM |
